Patent publication US20030022821A1, “Bioactive peptides” (priority 1998, published 2003)
≈ marks a conversion by molar mass, not a printed value. Where “and” joins values, the source holds several entries; their conditions need not be identical. Equal values may be shown once. Entries after “also recorded” stand apart in the source; their conditions may differ. Read-outs that look alike come from different tables or passages of the source. Square brackets hold non-standard residues; d marks the D form. Ends that are not written are not given here. Peptide text beside a SMILES is read from it. Bip = N[C@@H](Cc1ccc(-c2ccccc2)cc1)C(=O)O

What was measured:
[1] = test system: Escherichia coli ATCC 25922; format: cell-based
Procedure, shortened: (§1)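 Bacteria in mid-log phase, grown in 2% Bacto Peptone water, were tested by standard microdilution in 1% Bacto Peptone water at an inoculum of 2×10^6 CFU/ml. Runs were in triplicate, and peptide concentration in the wells was checked by HPLC.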

[2] = test system: Staphylococcus aureus ATCC 25923; format: cell-based
Procedure, shortened: as §1

[3] = test system: MRSA (methicillin resistant S. aureus); format: cell-based
Experimental: The bacterial strains used were: Escherichia coli ATCC 25922 and Staphylococcus aureus ATCC 25923. All strains were stored at −70° C. The bacteria were grown in 2% Bacto Peptone water (Difco 1807-17-4). All tests were performed with bacteria in mid-logarithmic growth phase. Determination of the minimum inhibitory concentration (MIC) of the peptides for bacterial strains were performed in 1% Bacto Peptone water. A standard microdilution technique with an inoculum of 2×10^6 CFU/ml was used. All assays were performed in triplets. Since the peptides are positively charged and therefore could adhere to the plastic wells, we controlled the actual concentration of the peptides in the solution by HPLC. There was no difference between the concentration of the peptides before or after adding the solution to the plastic wells.
Table 13 below gives the antibacterial activity and toxicity data for some preferred peptides of the invention. MRSA is methicillin resistant S. aureus and MRSE is methicillin resistant S. epidermidis.

[4] = test system: human red blood cells; test: Hemolytic assay; format: cell-based; conditions: red cells of human
[5] = test system: normal fibroblasts; format: cell-based
[6] = test system: Meth A cells (murine sarcoma cell line); test: Cytotoxicity on Meth A cells, MTT method; conditions: 4 h
Experimental: Peptide solutions (0.1 ml) were added and the plates incubated at 37° C. for 30 minutes, 4 hours or 24 hours. The cytotoxicity was measured using the MTT method (Mosmann et al., J. Immunol. (1986) 136, 2348-2357).
Cells in the growth phase were harvested and washed in fresh medium and injected subcutaneously into the abdominal region of the mice.
The cytotoxic effect of the peptides on different murine and human tumor cells were measured using the MTT method (Mosmann et al., J. Immunol. (1986) 136, 2348-2357). MTT is a soluble tetrazolium salt yielding a yellow solution when prepared in media or salt solutions lacking phenol red. Dissolved MTT is converted to an insoluble purple formazan by cleavage of the tetrazolium ring by dehydrogenase enzymes. This water insoluble formazan can be solubilized using isopropanol or other solvents and the dissolved material is measured spectrophotometrically. The absorbance was measured as a function of concentration of converted dye.
Cells were maintained in […] medium containing 10% FBS, 1% L-glutamine and 0.1% penicillin and streptomycin. Cells to be used in the assay were grown to confluency, trypsinated and split to single cell suspension, counted and centrifuged at 1500 rpm for 10 min. […][…] of cell suspension was transferred to each well on a 96-well microtiter plate. The cells were stimulated by adding […] of various concentrations of peptides diluted with assay medium to each well. The final concentrations of peptide were for example: 5, 10, 20, 40, 60, 80, 100, and 200 mg/ml. […] As a negative control only medium was added to the cells, and as a positive control (100% killing) 1% triton X-100 was added. Following an incubation period of 4 h., 20 ml MTT dissolved in PBS at a concentration of 5 mg/ml was added to each well, and the plate was incubated further for 2 h. 130 ml of the supernatant were then removed and […] acid alcohol (0.04-0.1 N HCl in isopropanol) added to each well to dissolve the dark blue crystals. The plate was placed on a shaker for 1 h and read spectrophotometrically at 590 nm in a microtiterplate reader using the Softmaxâ program.

| Compound | EC50 [4] | IC50 [5] | Mic E-coli ([1]; ATCC 25922) | Mic S. Aureus ([2]; ATCC 25923) | IC50 [6] | other results |
| --- | --- | --- | --- | --- | --- | --- |
| C[C@@H](NC(=O)[C@H](Cc1c[nH]c2ccccc12)NC(=O)[C@H](CCCNC(=N)N)NC(=O)[C@H](Cc1c[nH]c2ccccc12)NC(=O)[C@@H](C)NC(=O)[C@@H](CCCNC(=N)N)NC(=O)[C@H](N)Cc1ccc(O)cc1)C(=O)N[C@@H](Cc1c[nH]c2ccccc12)C(=O)N[C@@H](CCCNC(=N)N)C(=O)N[C@@H](Cc1c[nH]c2ccccc12)C(=O)N[C@@H](CCCNC(=N)N)C(N)=O (H-[dY][dR][dA]WRW[dA]WRWR-NH2) | – | – | – | – | – | MIC E. coli ([1]; Table 14, peptides with a proportion of D amino acids): 7.5 µg/mL (≈ 4.43 µM); MIC S. aureus ([2]; Table 14): 5 µg/mL (≈ 2.96 µM); MIC MRSA ([3]; Table 14): 2.5 µg/mL |
| CSCC[C@H](NC(=O)[C@H](CCCNC(=N)N)NC(=O)[C@H](Cc1c[nH]c2ccccc12)NC(=O)[C@H](CCC(N)=O)NC(=O)[C@H](Cc1c[nH]c2ccccc12)NC(=O)[C@H](CCCNC(=N)N)NC(=O)[C@H](CCCNC(=N)N)NC(=O)[C@H](Cc1ccc(-c2ccccc2)cc1)NC(=O)[C@H](CCCCN)NC(=O)[C@@H](N)Cc1ccccc1)C(=O)N[C@@H](CCCCN)C(=O)N[C@@H](CCCCN)C(=O)N[C@@H](CC(C)C)C(=O)NCC(=O)N[C@@H](C)C(=O)O [LFB Bip3] (H-FK[Bip]RRWQWRMKKLGA-OH; N-terminus assumed) | – | – | – | – | – | MIC E. coli ([1]; Table 13, listed as LPB Bip 3): 12.5 µg/mL (≈ 5.91 µM); MIC MRSA ([3]; Table 13, listed as LPB Bip 3): 2.5 µg/mL; MIC MRSA ([3]; methicillin resistant): 1.2 µM |
| CSCC[C@H](NC(=O)[C@H](CCCNC(=N)N)NC(=O)[C@H](Cc1ccc(-c2ccccc2)cc1)NC(=O)[C@H](CCC(N)=O)NC(=O)[C@H](Cc1ccc(-c2ccccc2)cc1)NC(=O)[C@H](CCCNC(=N)N)NC(=O)[C@H](CCCNC(=N)N)NC(=O)[C@H](CSCNC(C)=O)NC(=O)[C@H](CCCCN)NC(=O)[C@@H](N)Cc1ccccc1)C(=O)N[C@@H](CCCCN)C(=O)N[C@@H](CCCCN)C(=O)N[C@@H](CC(C)C)C(=O)NCC(=O)N[C@@H](C)C(=O)O [LFB Bip6, 8] | – | – | – | – | – | MIC E. coli ([1]; ATCC 25922): 10 µg/mL (≈ 4.67 µM); MIC E. coli ([1]; Table 13, 8): ≧12.5 μg/ml; also recorded: ≧5.8 μM; MIC S. aureus ([2]; Table 13, 8): 3.0 µg/mL (≈ 1.4 µM); MIC MRSA ([3]; Table 13, 8): 2.5 µg/mL; MIC MRSA ([3]; methicillin resistant): 1.2 µM |
| CSCC[C@H](NC(=O)[C@H](CCCNC(=N)N)NC(=O)[C@H](Cc1ccc(-c2ccccc2)cc1)NC(=O)[C@H](CCC(N)=O)NC(=O)[C@H](Cc1c(S(=O)(=O)c2c(C)c(C)c3c(c2C)CCC(C)(C)O3)[nH]c2ccccc12)NC(=O)[C@H](CCCNC(=N)N)NC(=O)[C@H](CCCNC(=N)N)NC(=O)[C@H](CSCNC(C)=O)NC(=O)[C@H](CCCCN)NC(=O)[C@@H](N)Cc1ccccc1)C(=O)N[C@@H](CCCCN)C(=O)N[C@@H](CCCCN)C(=O)N[C@@H](CC(C)C)C(=O)NCC(=O)N[C@@H](C)C(=O)O [LFB Bip8 PMC] | – | – | – | – | – | MIC E. coli ([1]; Table 8): 25 µg/mL (≈ 10.6 µM); MIC E. coli ([1]; Table 13): 15.0 μg/ml and 6.3 μM; MIC S. aureus ([2]; Table 8): 5 µg/mL (≈ 2.11 µM); MIC S. aureus ([2]; Table 13): 2.5 μg/ml and 1.1 μM; MIC MRSA ([3]; Table 13): 2.5 μg/ml and 1.1 μM |
| N=C(N)NCCC[C@@H](N)C(=O)N[C@@H](Cc1c[nH]c2ccccc12)C(=O)N[C@H](Cc1c[nH]c2ccccc12)C(=O)N[C@@H](CCCNC(=N)N)C(=O)N[C@H](Cc1ccc(O)cc1)C(=O)N[C@@H](Cc1c[nH]c2ccccc12)C(=O)N[C@H](CCCNC(=N)N)C(N)=O [arg-TRP-trp-ARG-tyr-TRP-arg-CONH2] (H-[dR]W[dW]R[dY]W[dR]-NH2; N-terminus assumed) | – | – | – | – | – | MIC E. coli ([1]; ATCC 25922): 7.5 µg/mL (≈ 6.21 µM); MIC S. aureus ([2]; ATCC 25923): 5 µg/mL (≈ 4.14 µM); MIC MRSA ([3]; methicillin resistant): 2.5 µg/mL |
| N=C(N)NCCC[C@@H](N)C(=O)N[C@H](Cc1c[nH]c2ccccc12)C(=O)N[C@@H](Cc1c[nH]c2ccccc12)C(=O)N[C@@H](CCCNC(=N)N)C(=O)N[C@@H](Cc1ccc(O)cc1)C(=O)N[C@H](Cc1c[nH]c2ccccc12)C(=O)N[C@H](CCCNC(=N)N)C(N)=O [arg-trp-TRP-ARG-TYR-trp-arg-CONH2] (H-[dR][dW]WRY[dW][dR]-NH2) | – | – | – | – | – | MIC E. coli ([1]; ATCC 25922): 7.5 µg/mL (≈ 6.21 µM); MIC S. aureus ([2]; ATCC 25923): 5 µg/mL (≈ 4.14 µM); MIC MRSA ([3]; methicillin resistant): 2.5 µg/mL |
| C[C@@H](NC(=O)[C@H](CCCNC(=N)N)NC(=O)[C@H](N)Cc1ccc(O)cc1)C(=O)N[C@@H](Cc1c[nH]c2ccccc12)C(=O)N[C@H](CCCNC(=N)N)C(=O)N[C@@H](Cc1c[nH]c2ccccc12)C(=O)N[C@H](C)C(=O)N[C@@H](Cc1c[nH]c2ccccc12)C(=O)N[C@H](CCCNC(=N)N)C(=O)N[C@@H](Cc1c[nH]c2ccccc12)C(=O)N[C@H](CCCNC(=N)N)C(N)=O [tyr-ARG-ala-TRP-arg-TRP-ala-TRP-arg-TRP-arg-CONH2] (H-[dY]R[dA]W[dR]W[dA]W[dR]W[dR]-NH2; N-terminus assumed) | – | – | – | – | – | MIC E. coli ([1]; ATCC 25922): 7.5 µg/mL (≈ 4.43 µM); MIC S. aureus ([2]; ATCC 25923): 7.5 µg/mL (≈ 4.43 µM); MIC MRSA ([3]; methicillin resistant): 2.5 µg/mL |
| PAARKAFRWAWRMLKKAA-OH [LFB 14-31A2,3,6, 10, 17F7K16L14R4] | > 463 µM | 190 µM | 15 µM | 10 µM | 24.1 µM | – |
| PAIRKAFRIAIRMLKKAA-OH | > 487 µM | 280 µM | 2.5 µM | 10 µM | 47 µM | – |
| PAIRKAFRIAWRMLKKAA-OH [LFB 14-31A2,6, 10, 17F7I3, 9K16L14R4] | > 470 µM | 108 µM | 5 µM | 5 µM | 36 µM | – |
| PAIRKAFRWAIRMLKKAA-OH [LFB 14-31A2,6, 10, 17F7I3, 11K16L14R4] | 413 µM | 45 µM | 2.5 µM | 5 µM | 16 µM | – |
| PAIRKAFRWAWRMLKKAA-OH [LFB 14-31A2,6, 10, 17F7I3K16L14R4] | 323 µM | 20 µM | – | – | 9 µM | Mic E-coli ([1]; Table 17): 2/4; Mic S. Aureus ([2]; Table 17): 2/4 |
| PAWRKAARWAWRMLKKAA-OH [LFB 14-31A2,6, 10, 17F7K16L14R4 F7 → A7] | > 455 µM | 289 µM | 15 µM | 10 µM | 34.6 µM | – |
| PAWRKAFRAAARMLKKAA-OH [LFB 14-31A2,6,9, 10, 11, 17F7K16L14R4] | > 489 µM | > 489 µM | 30 µM | 30 µM | 110 µM | – |
| PAWRKAFRAAWRMLKKAA-OH [LFB 14-31A2,6,9, 10, 17F7K16L14R4] | 382 µM | 46.3 µM | 10 µM | 5 µM | 16.2 µM | – |
| PAWRKAFRKAKRMLKKAA-OH [LFB 14-31A2,6, 10, 17F7K9, 11, 16L14R4] | > 463 µM | > 463 µM | – | – | > 300 µM | – |
| PAWRKAFRKAWRMLKKAA-OH [LFB 14-31A2,6, 10, 17F7K9, 16L14R4] | > 451 µM | 58.7 µM | 30 µM | 10 µM | 13.5 µM | – |
| PAWRKAFRWAARMLKKAA-OH [LFB 14-31A2,6, 10, 11, 17F7K16L14R4] | 278 µM | 46.3 µM | 10 µM | >2.5 µM | 11.1 µM | – |
| PAWRKAFRWAKRMLKKAA-OH [LFB 14-31A2,6, 10, 17F7K11, 16L14R4] | > 451 µM | 30.7 µM | 5 µM | <2.5 µM | 7.9 µM | – |
| PAWRKAFRWAWRMLKKAA-OH [LFB 14-31A2,6, 10, 17F7K16L14R4] | 110 µM | 17 µM | – | 2 µM | 6.6 µM | Mic E-coli ([1]; Table 17): 2/4 |
